Measured values as given in PubChem BioAssay AID248 (DTP/NCI, 2004).
Several values for one entry are separate records, joined by “and”; a condition that tells them apart may be missing. Identical values can stand only once. Inconclusive results and toxic doses are left out. Rule as the data show it: active = T/C of 150% or more; inactive = T/C below 125%.

Tested on: L1210 leukemia ip in BDF1 mice, survival T/C
Test: NCI In Vivo Anticancer Drug Screen. Data for tumor model L1210 Leukemia (intraperitoneal) in B6D2F1 (BDF1) mice
Details: endpoint: mean survival time, higher = longer survival
Outline: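 Ratio derived from survival: compound-dosed mice over vehicle-dosed mice, all bearing a transplantable tumor.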

[1] = dose: 100.0 mg/kg/injection, schedule: Q01DX001 (ip), vehicle: saline
[2] = dose: 200.0 mg/kg/injection, schedule: Q01DX001 (ip), vehicle: saline
[3] = dose: 400.0 mg/kg/injection, schedule: Q01DX001 (ip), vehicle: saline
[4] = dose: 25.0 mg/kg/injection, schedule: Q01DX009 (ip), vehicle: saline
[5] = dose: 50.0 mg/kg/injection, schedule: Q01DX009 (ip), vehicle: saline
[6] = dose: 100.0 mg/kg/injection, schedule: Q01DX009 (ip), vehicle: saline
[7] = dose: 100.0 mg/kg/injection, schedule: Q04DX003 (ip), vehicle: saline with Tween-80
[8] = dose: 200.0 mg/kg/injection, schedule: Q04DX003 (ip), vehicle: saline with Tween-80
[9] = dose: 300.0 mg/kg/injection, schedule: Q01DX001 (ip), vehicle: carboxymethylcellulose (CMC)
[10] = dose: 100.0 mg/kg/injection, schedule: Q04DX002 (ip), vehicle: saline
[11] = dose: 200.0 mg/kg/injection, schedule: Q04DX002 (ip), vehicle: saline
[12] = dose: 400.0 mg/kg/injection, schedule: Q04DX002 (ip), vehicle: saline

Measured: T/C

CC(=O)C(C(=O)NCc1ccccc1)C(c1ccc2c(c1)OCO2)C(C(C)=O)C(=O)NCc1ccccc1 (centres undefined)
inactive: [1] 98 % of control | [2] 96 % of control | [3] 97 % of control

Nc1ccn([C@@H](C=O)O[C@@H](C=O)CO)c(=O)n1
active: dose: 140.0 mg/kg/injection, schedule: Q01DX009 (ip), vehicle: water 161 % of control
inactive: dose: 35.0 mg/kg/injection, schedule: Q01DX009 (ip), vehicle: water 111 % of control | dose: 35.0 mg/kg/injection, schedule: Q01DX Z (ip), vehicle: water 107 % of control | dose: 70.0 mg/kg/injection, schedule: Q01DX009 (ip), vehicle: water 122 % of control | dose: 70.0 mg/kg/injection, schedule: Q01DX Z (ip), vehicle: water 123 % of control

CN(C)CCCN1Cc2ccccc2Cc2ccccc21
inactive: dose: 6.25 mg/kg/injection, schedule: Q01DX009 (ip), vehicle: saline 106 % of control | dose: 12.5 mg/kg/injection, schedule: Q01DX009 (ip), vehicle: saline 88 % of control | [4] 97 % of control | dose: 25.0 mg/kg/injection, schedule: Q04DX003 (ip), vehicle: saline 97 % of control | [5] 104 % of control | dose: 50.0 mg/kg/injection, schedule: Q04DX003 (ip), vehicle: saline 108 % of control | [6] 100 % of control | dose: 100.0 mg/kg/injection, schedule: Q04DX003 (ip), vehicle: saline 108 % of control

CCOC(=O)CC(C(=O)OCC)N1CCCCC1 (centres undefined)
inactive: [1] 92 % of control | dose: 100.0 mg/kg/injection, schedule: Q01DX009 (ip), vehicle: alcohol 95 % of control | dose: 100.0 mg/kg/injection, schedule: Q04DX003 (ip), vehicle: alcohol 100 % of control | [2] 91 % of control | dose: 200.0 mg/kg/injection, schedule: Q01DX009 (ip), vehicle: alcohol 95 % of control | dose: 200.0 mg/kg/injection, schedule: Q04DX003 (ip), vehicle: alcohol 95 % of control | [3] 94 % of control | dose: 400.0 mg/kg/injection, schedule: Q01DX009 (ip), vehicle: alcohol 105 % of control | dose: 400.0 mg/kg/injection, schedule: Q04DX003 (ip), vehicle: alcohol 97 % of control

O=C(N/N=C/c1cc([N+](=O)[O-])ccc1O)c1cccc2ccccc12
inactive: [1] 90 % of control | [2] 90 % of control | [3] 92 % of control

O=C(CCl)NC(=O)CCl
inactive: dose: 15.6 mg/kg/injection, schedule: Q01DX010 (ip), vehicle: other 97 % of control | dose: 31.3 mg/kg/injection, schedule: Q01DX009 (ip), vehicle: other 90 % of control | dose: 62.5 mg/kg/injection, schedule: Q01DX009 (ip), vehicle: other 92 % of control | [1] 103 % of control | [7] 103 % of control | dose: 125.0 mg/kg/injection, schedule: Q01DX010 (ip), vehicle: other 95 % of control | [2] 100 % of control | [8] 93 % of control

CCCCNC(c1ccc(C[N+]2(C)CCCC2)cc1)C(Cl)(Cl)Cl (centres undefined)
inactive: dose: 10.0 mg/kg/injection, schedule: Q01DX001 (ip), vehicle: saline 95 % of control | dose: 20.0 mg/kg/injection, schedule: Q01DX001 (ip), vehicle: saline 95 % of control

CN(N=O)C(=O)NC1C(CO)OC(n2cnc3c(N)ncnc32)C1O (centres undefined)
inactive: dose: 13.0 mg/kg/injection, schedule: Q01DX001 (ip), vehicle: saline with Tween-80 104 % of control | dose: 20.0 mg/kg/injection, schedule: Q01DX001 (ip), vehicle: saline with Tween-80 106 % of control | dose: 30.0 mg/kg/injection, schedule: Q01DX001 (ip), vehicle: saline with Tween-80 106 % of control | dose: 44.0 mg/kg/injection, schedule: Q01DX001 (ip), vehicle: saline with Tween-80 116 % of control | dose: 67.0 mg/kg/injection, schedule: Q01DX001 (ip), vehicle: saline with Tween-80 117 % of control | dose: 100.0 mg/kg/injection, schedule: Q01DX001 (ip), vehicle: saline with Tween-80 123 % of control | dose: 150.0 mg/kg/injection, schedule: Q01DX001 (ip), vehicle: saline with Tween-80 117 % of control

Oc1ccc(-c2cc3c(O)ccc(O)c3[nH]2)cc1
inactive: dose: 50.0 mg/kg/injection, schedule: Q04DX002 (ip), vehicle: Klucel (hydroxypropylcellulose) (HPC) 96 % of control | dose: 100.0 mg/kg/injection, schedule: Q04DX002 (ip), vehicle: Klucel (hydroxypropylcellulose) (HPC) 105 % of control | dose: 200.0 mg/kg/injection, schedule: Q04DX002 (ip), vehicle: Klucel (hydroxypropylcellulose) (HPC) 102 % of control

CC(C(=O)O)(c1ccccc1)c1ccccc1
inactive: dose: 100.0 mg/kg/injection, schedule: Q04DX002 (ip), vehicle: gum acacia 101 % of control | dose: 200.0 mg/kg/injection, schedule: Q04DX002 (ip), vehicle: gum acacia 96 % of control | dose: 400.0 mg/kg/injection, schedule: Q04DX002 (ip), vehicle: gum acacia 96 % of control

CCCCCCOB(OCCCCCC)OCCCCCC
inactive: dose: 50.0 mg/kg/injection, schedule: Q01DX001 (ip), vehicle: carboxymethylcellulose (CMC) 107 % of control | dose: 88.0 mg/kg/injection, schedule: Q01DX001 (ip), vehicle: carboxymethylcellulose (CMC) 97 % of control and 98 % of control | dose: 100.0 mg/kg/injection, schedule: Q01DX001 (ip), vehicle: carboxymethylcellulose (CMC) 102 % of control | dose: 133.0 mg/kg/injection, schedule: Q01DX001 (ip), vehicle: carboxymethylcellulose (CMC) 96 % of control and 103 % of control | [9] 93 % of control and 94 % of control | dose: 400.0 mg/kg/injection, schedule: Q01DX001 (ip), vehicle: carboxymethylcellulose (CMC) 105 % of control

CN(C)CCOC(=O)c1cccc(CCl)c1
inactive: dose: 45.0 mg/kg/injection, schedule: Q04DX002 (ip), vehicle: saline 106 % of control | dose: 50.0 mg/kg/injection, schedule: Q04DX002 (ip), vehicle: saline 98 % of control | dose: 65.0 mg/kg/injection, schedule: Q04DX002 (ip), vehicle: saline 97 % of control | [10] 97 % of control and 102 % of control | dose: 150.0 mg/kg/injection, schedule: Q04DX002 (ip), vehicle: saline 91 % of control | [11] 94 % of control and 88 % of control | [12] 106 % of control

Cc1cc(CC(O)(C(F)(F)F)C(F)(F)F)c(C#N)c(=O)[nH]1
inactive: [7] 97 % of control | [8] 97 % of control | dose: 400.0 mg/kg/injection, schedule: Q04DX003 (ip), vehicle: saline with Tween-80 97 % of control

CC(C)(C)OC(=O)NC(CC(N)=O)C(=O)ON1C(=O)CCC1=O (centres undefined)
inactive: [4] 95 % of control | [5] 99 % of control | [6] 86 % of control | [10] 108 % of control | dose: 200.0 mg/kg/injection, schedule: Q01DX009 (ip), vehicle: saline 94 % of control and 99 % of control | [11] 86 % of control | dose: 400.0 mg/kg/injection, schedule: Q01DX009 (ip), vehicle: saline 105 % of control | [12] 105 % of control

CC1=NNC(=O)C1CCO (centres undefined)
inactive: dose: 25.0 mg/kg/injection, schedule: Q01DX009 (ip), vehicle: Klucel (hydroxypropylcellulose) (HPC) 98 % of control | dose: 50.0 mg/kg/injection, schedule: Q01DX009 (ip), vehicle: Klucel (hydroxypropylcellulose) (HPC) 98 % of control | dose: 100.0 mg/kg/injection, schedule: Q01DX009 (ip), vehicle: Klucel (hydroxypropylcellulose) (HPC) 92 % of control | dose: 100.0 mg/kg/injection, schedule: Q04DX003 (ip), vehicle: Klucel (hydroxypropylcellulose) (HPC) 89 % of control | dose: 200.0 mg/kg/injection, schedule: Q01DX009 (ip), vehicle: Klucel (hydroxypropylcellulose) (HPC) 95 % of control | dose: 200.0 mg/kg/injection, schedule: Q04DX003 (ip), vehicle: Klucel (hydroxypropylcellulose) (HPC) 96 % of control | dose: 400.0 mg/kg/injection, schedule: Q01DX009 (ip), vehicle: Klucel (hydroxypropylcellulose) (HPC) 97 % of control | dose: 400.0 mg/kg/injection, schedule: Q04DX003 (ip), vehicle: Klucel (hydroxypropylcellulose) (HPC) 100 % of control

O=C(O)c1cc(Cl)ccc1-c1ccc(Cl)cc1C(=O)Nc1ccc2c(c1)Cc1ccccc1-2
inactive: dose: 75.0 mg/kg/injection, schedule: Q01DX001 (ip), vehicle: carboxymethylcellulose (CMC) 102 % of control | dose: 150.0 mg/kg/injection, schedule: Q01DX001 (ip), vehicle: carboxymethylcellulose (CMC) 113 % of control | [9] 104 % of control

O=C1CCC2OC(=O)C3CCCC1C23 (centres undefined)
inactive: [1] 103 % of control | [2] 97 % of control | [3] 101 % of control
